From patent publication US9669005B2, “Use of naringenin in preparing drugs for preventing and/or treatment abdominal aortic aneurysm” (priority 2013, dated 2017)

Assays:
Assay type in all cases: in vivo
[1] = tested on: abdominal aortic aneurysms in C57BL/6J mice with CaPO4 daubed infrarenal arteries; assay: Abdominal aortic aneurysm model induced by CaPO4 daubed infrarenal aortas, naringenin or doxycycline gavage; settings: CaPO4 daubed C57BL/6 mice, daily gavage 7 days
Experimental: 12-week old of male C57BL/6 mice were anesthetized via intraperitoneal injection of 0.1% pentobarbital sodium (injection according to body weight, […]). Infrarenal abdominal aortas were separated, and the separated infrarenal abdominal aortas were packaged by gauze (1 cm in width×3 cm in length) soaked in 0.5 M CaCl2 solution. After 10 minutes, the gauze was removed, gauze soaked in PBS was instead used to package the blood vessel for 5 min. CaCl2+and PO4^−3 in PBS can form CaPO4 crystal, that is, corresponding to daubing CaPO4 to the blood vessel. After packaging the blood vessel with gauze soaked in NaCl for 10 minutes, gauze soaked in PBS is instead used for 5 min, serving as NaCl daubed control group.
Gavage was started at the first day after surgery, and water, naringenin (50 mg/kg) (Sigma-Aldrich, St. Louis, Mo.) or doxycycline (100 mg/kg) (Sigma-Aldrich, St. Louis, Mo.) gavage were given on mice daily. Materials were removed from the mice 7 days after gavage. Mice were weighed, and blood was drawn from inner canthus by capillary, after centrifuged for 10 minutes at 6000 rotations, the supernatant was removed and blood fat was measured (kit is purchased from BIOSINO company). Then perfusion and washing were performed on mice using PBS. Blood vessels were separated, and four blood vessels were randomly chosen for each group for photographing. The results were shown in FIG. 1, wherein, NaCl was the group of daubing NaCl (n=11), CaPO4 was the group of daubing CaPO4 plus water feed (n=12), CaPO4+NGN was the group of daubing CaPO4 μlus naringenin gavage (n=11), and CaPO4+Dox was the group of daubing CaPO4 μlus doxycycline gavage (n=11).
The blood vessels were sliced, and the change of the diameters in infrarenal abdominal aortas of mice were identified by H.E. staining. […] The data in FIG. 2A were an average value±standard deviation.
The fracture degree of elastic lamina is also an index showing the severity of abdominal aortic aneurysms. The degradation of elastic lamina is divided into four grades. The first grade means that the degradation of elastic lamina is less than 25%, with the second grade of 25%-50%, the third grade of 50%-75%, and the fourth grade means the fracture is more than 75%. We used Gomori staining to identify the fracture situation of elastic lamina of infrarenal abdominal aortas of mice. […] The data in FIG. 2B were an average value±standard deviation.

[2] = tested on: IL-6 and MCP-1; assay: Immunohistochemical staining of IL-6 and MCP-1 on vascular walls, CaPO4 model; settings: CaPO4 daubed mice; immunohistochemistry; FIG. 3B
Excerpt: IL-6 and MCP-1 are proinflammatory chemotactic factors and cytokines, and they are mainly from vascular walls. MCP-1 can release more matrix metalloproteinase to degrade matrix by recruiting leukocytes, which mediats vascular remodeling and expanding (MacTaggart J N et al. Deletion of ccr2 but not ccr5 or cxcr3 inhibits aortic aneurysm formation Surgery. 2007; 142:284-288; Ishibashi M et al. Bone marrow-derived monocyte chemoattractant protein-1 receptor ccr2 is critical in angiotensin ii-induced acceleration of atherosclerosis and aneurysm formation in hypercholesterolemic mice. Arterioscl throm vasc biol. 2004; 24: e174-178), while IL-6 can enlarge effect of MCP-1 to aggravate the onset of abdominal aortic aneurysms (Tieu B C et al. An adventitial il-6/mcpl amplification loop accelerates macrophage-mediated vascular inflammation leading to aortic dissection in mice. J Clin Invest. 2009; 119:3637-3651). We used histochemical staining to identify the expressions of IL-6 and MCP-1 on vascular walls. IL-6 and MCP-1 were immunohistochemical results of anti-IL-6 and anti-MCP-1 specific antibodies (purchased from Abcam, Cambridge Company, UK), respectively.

[3] = tested on: MMP-2 and NMP-9; assay: Gelatin zymography, CaPO4 model; settings: CaPO4 daubed mice; infrarenal abdominal aorta culture supernatant; FIG. 4B
Experimental: After extravasated blood in fresh removed blood vessels of infrarenal site in abdominal aortas of mice were cleared, and fat and connective tissues were removed, and blood vessels were cut into 1 cm ring, and put into 24-well plate. Blood vessels were cultured for 24 hours using 0.5 ml serum-free medium with high glucose. After the cultured supernatant protein was quantified, mercaptoethanol-free protein sample loading buffer was added, cryopreserved at −80° C. Water was used to prepare gelatin (Sigma-Aldrich, St. Louis, Mo.) into a concentration of 10 mg/ml, which was added to separation gel of protein electrophoresis according to the proportion of 1:10, causing the final concentration of gelatin as 1 mg/ml. Electrophoresis was performed in a voltage of 80V at 4° C. The gel was put into 0.25% Trixon-100 solution, and washing was performed twice in 30 minutes. […] Incubated gel was put into Coomassie brilliant blue to stain for 1-2 hours at room temperature, washed for 30 minutes with a solution having 30% methanol and 10% glacial acetic acid, a solution having 20% methanol and 10% glacial acetic acid, and a solution having 10% methanol and 5% glacial acetic acid, respectively, and then analyzed with Odyssey infrared fluorescence scanning system (LI-COR Biosciences, Lincoln, Nebr.). […]

[4] = Biochemical indexes, body weight and blood pressure of angiotensin II induced ApoE-/- mice; settings: naringenin 50 mg/kg gavage 28 days
Experimental: Firstly, 16 weeks of male ApoE^−/− mice were randomly divided into two groups, control group (n=16) and naringenin group (n=15), respectively. And then they were anesthetized by 0.1% pentobarbital sodium, and mini pumps (model 2004, Alzet, Cupertino, Calif.) were subcutaneously submerged; angiotensin II (Sigma-Aldrich, St. Louis, Mo.) dissolved with normal saline was added to the pump, such that drugs can be continuously administrated for 4 weeks at a dosage of 1000 ng/kg/min. From the first day after surgery, gavage was daily performed to mice at constant time points, water gavage in control group, and naringenin gavage (50 mg/kg) in naringenin group. Materials were removed 28 days after gavage. Blood pressure of the mice was measured by tail cuff method with BP-89A sphygmomanometer (Beijing Softron Biotechnology Co., Ltd.), and the mice were weighted. Blood was drawn in inner canthus of the mice, and after centrifuged for 10 minutes at 6000 rotations, supernatant was removed and the blood fat levels of the mice were measured.

[5] = AngII 1000 ng/kg/min ApoE-/- mice

O=C1C[C@@H](c2ccc(O)cc2)Oc2cc(O)cc(O)c21 [naringenin]
fracture of elastic lamina of infrarenal abdominal aortas (Gomori staining) ([1]; FIG. 2B): reverse the effect of CaPO4 | diameters of infrarenal abdominal aortas (H.E. staining) ([1]; naringenin 50 mg/kg, doxycycline 100 mg/kg, average ± SD, CaPO4 + water 1.40±0.19, NaCl 0.77±0.06): 1.03±0.18 mm | incidence rate and degree of bulge of blood vessels at infrarenal site ([1]; naringenin 50 mg/kg, doxycycline 100 mg/kg, vascular photos FIG. 1): reduce the incidence rate and degree of bulge | expression of IL-6 and MCP-1 in adventitia in vascular walls [2]: reduce their expressions | MMP-2 and NMP-9 (gelatin zymography) [3]: reverse the increase of MMP-2 and NMP-9 caused by CaPO4 daubing | Body weight [4, 5]: 28.9 ± 2.03 g | Cholesterol [4, 5]: 8.46 ± 2.45 mmol | High density lipoprotein [4, 5]: 56.5 ± 5.97 mg/deciliter | Low density lipoprotein [4, 5]: 44.1 ± 15.9 mg/deciliter | Triglyceride [4, 5]: 0.69 ± 0.35 mmol | Blood pressure ([4]; AngII 1000 ng/kg/min ApoE-/- mice, tail cuff method): 136.6 ± 14.27 mmHg | blood pressure and body weight ([4]; AngII ApoE-/- mice): does not have an effect | levels of cholesterol, triglyceride, and low density lipoprotein ([4]; AngII ApoE-/- mice): reduces
